Patent US7728012B2, “Carboxamide compounds and their use as calpain inhibitors” (Abbott GmbH & Co. KG, priority 2006, dated 2010)

Tests used:
Format in all cases: biochemical
[1] = biological target: T1, calpain-I isolated from human erythrocytes (Homo sapiens, UniProt P07384); assay: Calpain I kinetic fluorescence enzyme inhibition assay; details: apparent Ki from IC50 by Cheng-Prussoff; average of 2 to 4 dose-effect plots
T1 construct: calpain-I—isolated from human erythrocytes; purchased Calbiochem 208713; host or cells: human erythrocytes (tissue isolate)
T1 sequence (P07384 1-714): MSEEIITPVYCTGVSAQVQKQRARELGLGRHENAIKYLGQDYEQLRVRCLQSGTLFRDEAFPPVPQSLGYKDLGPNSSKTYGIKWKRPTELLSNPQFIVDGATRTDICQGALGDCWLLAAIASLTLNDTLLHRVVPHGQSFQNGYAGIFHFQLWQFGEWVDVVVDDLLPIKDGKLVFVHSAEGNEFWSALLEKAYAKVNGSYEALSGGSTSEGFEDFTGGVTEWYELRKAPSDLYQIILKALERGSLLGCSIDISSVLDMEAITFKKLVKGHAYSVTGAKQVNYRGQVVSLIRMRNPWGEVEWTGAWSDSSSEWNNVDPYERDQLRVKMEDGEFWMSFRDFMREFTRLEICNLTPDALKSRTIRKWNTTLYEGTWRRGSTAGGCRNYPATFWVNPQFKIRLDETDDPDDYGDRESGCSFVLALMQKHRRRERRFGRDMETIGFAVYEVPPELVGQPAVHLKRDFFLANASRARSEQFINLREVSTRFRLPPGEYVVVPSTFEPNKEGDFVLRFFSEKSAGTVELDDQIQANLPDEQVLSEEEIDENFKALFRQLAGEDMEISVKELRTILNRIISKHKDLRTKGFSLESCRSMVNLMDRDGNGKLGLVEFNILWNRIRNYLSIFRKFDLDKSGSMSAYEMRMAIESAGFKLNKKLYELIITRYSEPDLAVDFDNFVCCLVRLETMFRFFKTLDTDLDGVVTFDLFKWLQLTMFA
T1 sequence (P04632 1-268 partner): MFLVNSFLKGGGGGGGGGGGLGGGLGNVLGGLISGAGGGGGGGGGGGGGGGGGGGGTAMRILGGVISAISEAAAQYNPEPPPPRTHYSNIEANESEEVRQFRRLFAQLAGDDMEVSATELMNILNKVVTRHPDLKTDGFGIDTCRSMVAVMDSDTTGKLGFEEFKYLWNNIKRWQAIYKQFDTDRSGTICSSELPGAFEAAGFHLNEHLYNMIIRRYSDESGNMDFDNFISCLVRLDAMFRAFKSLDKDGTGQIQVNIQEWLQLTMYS

[2] = biological target: T2, cathepsin B isolated from human liver (Homo sapiens, UniProt P07858); assay: Cathepsin B kinetic fluorescence enzyme inhibition assay; details: selectivity ratio versus calpain I
T2 construct: cathepsin B—isolated from human liver; purchased Calbiochem 219362; host or cells: human liver (tissue isolate)
Outline: (§1)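 Inhibition is measured at room temperature in cysteine-containing MES buffer, pH 6.0, by continuous fluorescence at 460 nm. Cathepsin S (0.5 nM) uses 20 μM Z-Val-Val-Arg-AMC; L (1 nM) and B (0.25 nM) use Z-Phe-Arg-AMC at 2 and 100 μM respectively.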

[3] = biological target: T3, cathepsin K activated from recombinant human procathepsin K (Homo sapiens, UniProt P43235); assay: Cathepsin K kinetic fluorescence enzyme inhibition assay; details: selectivity ratio versus calpain I
T3 construct: purchased Calbiochem 342001; host or cells: E. coli
T3 sequence (P43235 115-329): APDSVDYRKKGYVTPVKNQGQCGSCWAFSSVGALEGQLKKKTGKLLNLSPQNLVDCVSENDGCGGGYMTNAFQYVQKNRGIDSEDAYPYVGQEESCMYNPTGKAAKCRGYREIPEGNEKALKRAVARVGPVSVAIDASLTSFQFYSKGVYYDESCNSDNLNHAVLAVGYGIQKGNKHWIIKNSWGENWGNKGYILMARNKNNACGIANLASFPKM

[4] = biological target: T4, cathepsin L isolated from human liver (Homo sapiens, UniProt P07711); assay: Cathepsin L kinetic fluorescence enzyme inhibition assay; details: selectivity ratio versus calpain I
T4 construct: cathepsin L—isolated from human liver; purchased Calbiochem 219402; host or cells: human liver (tissue isolate)
Outline: as §1

[5] = biological target: T5, recombinant human cathepsin S (Homo sapiens, UniProt P25774); assay: Cathepsin S kinetic fluorescence enzyme inhibition assay; details: selectivity ratio versus calpain I
T5 construct: purchased Calbiochem 219343; host or cells: E. coli
Outline: as §1

T5 sequence (P25774 115-331): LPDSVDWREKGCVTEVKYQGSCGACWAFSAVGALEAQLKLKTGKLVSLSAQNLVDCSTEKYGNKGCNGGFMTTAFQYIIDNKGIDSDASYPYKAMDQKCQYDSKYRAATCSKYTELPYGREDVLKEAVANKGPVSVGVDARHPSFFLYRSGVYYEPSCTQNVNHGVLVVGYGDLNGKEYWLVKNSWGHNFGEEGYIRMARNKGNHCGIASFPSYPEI
T4 sequence (P07711 114-333): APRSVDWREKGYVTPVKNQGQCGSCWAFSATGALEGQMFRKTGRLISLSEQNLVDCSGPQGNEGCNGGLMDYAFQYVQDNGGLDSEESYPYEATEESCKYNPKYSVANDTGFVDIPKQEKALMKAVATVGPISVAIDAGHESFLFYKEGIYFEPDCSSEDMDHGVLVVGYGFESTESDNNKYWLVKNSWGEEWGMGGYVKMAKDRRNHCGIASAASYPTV

Row | Ki [1] | Sel cat. B (Ki(cathepsin B)/Ki(calpain) ratio) [2] | Sel cat. K (Ki(cathepsin K)/Ki(calpain) ratio) [3] | Compound | Sel cat. L (Ki(cathepsin L)/Ki(calpain) ratio) [4] | Sel cat. S (Ki(cathepsin S)/Ki(calpain) ratio) [5]
1 | ≤ 40 nM | + (10≦Ki(cathepsin B)/Ki(calpain)<30) | + (10≦Ki(cathepsin K)/Ki(calpain)<30) | NC(=O)C(=O)C(Cc1ccccc1)NC(=O)c1cccnc1-n1ccc(-c2cccc(OC(F)(F)F)c2)n1 (stereo not drawn) [Example 168, N-[3-Amino-2,3-dioxo-1-(phenylmethyl)propyl]-2-(3-{3-[(trifluoromethyl)oxy]phenyl}-1H-pyrazol-1-yl)pyridine-3-carboxamide] | ++ (Ki(cathepsin L)/Ki(calpain) ratio of ≧50) | ++ (Ki(cathepsin S)/Ki(calpain) ratio of ≧100)
2 | ≤ 40 nM | + (10≦Ki(cathepsin B)/Ki(calpain)<30) | + (10≦Ki(cathepsin K)/Ki(calpain)<30) | NC(=O)C(=O)C(Cc1ccccc1)NC(=O)c1cccnc1-n1cc2c(n1)-c1ccccc1SC2 (stereo not drawn) [Example 173, N-[3-Amino-2,3-dioxo-1-(phenylmethyl)propyl]-2-thiochromeno[4,3-c]pyrazol-2(4H)-ylpyridine-3-carboxamide] | ++ (Ki(cathepsin L)/Ki(calpain) ratio of ≧50) | ++ (Ki(cathepsin S)/Ki(calpain) ratio of ≧100)
3 | ≤ 40 nM | + (10≦Ki(cathepsin B)/Ki(calpain)<30) | + (10≦Ki(cathepsin K)/Ki(calpain)<30) | NC(=O)C(=O)C(Cc1ccccc1)NC(=O)c1cccnc1-n1cc2c(n1)-c1ccccc1S(=O)(=O)C2 (stereo not drawn) [Example 174, N-[3-Amino-2,3-dioxo-1-(phenylmethyl)propyl]-2-(5,5-dioxidothiochromeno[4,3-c]pyrazol-2(4H)-yl)pyridine-3-carboxamide] | ++ (Ki(cathepsin L)/Ki(calpain) ratio of ≧50) | ++ (Ki(cathepsin S)/Ki(calpain) ratio of ≧100)
4 | ≤ 40 nM | + (10≦Ki(cathepsin B)/Ki(calpain)<30) | + (10≦Ki(cathepsin K)/Ki(calpain)<30) | COc1ccc2c(c1)-c1nn(-c3ncccc3C(=O)NC(Cc3ccccc3)C(=O)C(N)=O)cc1CO2 (stereo not drawn) [Example 183, N-[3-Aamino-2,3-dioxo-1-(phenylmethyl)propyl]-2-[8-(methyloxy)chromeno[4,3-c]pyrazol-2(4H)-yl]pyridine-3-carboxamide] | ++ (Ki(cathepsin L)/Ki(calpain) ratio of ≧50) | ++ (Ki(cathepsin S)/Ki(calpain) ratio of ≧100)
5 | 40 to 100 nM | + (10≦Ki(cathepsin B)/Ki(calpain)<30) | + (10≦Ki(cathepsin K)/Ki(calpain)<30) | NC(=O)C(=O)C(Cc1ccccc1)NC(=O)c1cccnc1-n1cc(Cl)c(-c2ccc(F)cc2)n1 (stereo not drawn) [Example 184, N-[3-Amino-2,3-dioxo-1-(phenylmethyl)propyl]-2-[4-chloro-3-(4-fluorophenyl)-1H-pyrazol-1-yl]pyridine-3-carboxamide] | ++ (Ki(cathepsin L)/Ki(calpain) ratio of ≧50) | ++ (Ki(cathepsin S)/Ki(calpain) ratio of ≧100)

Row | Compound | Ki [1] | Sel cat. B (Ki(cathepsin B)/Ki(calpain) ratio) [2] | Sel cat. K (Ki(cathepsin K)/Ki(calpain) ratio) [3] | Sel cat. L (Ki(cathepsin L)/Ki(calpain) ratio) [4] | Sel cat. S (Ki(cathepsin S)/Ki(calpain) ratio) [5]
6 | NC(=O)C(=O)C(Cc1ccccc1)NC(=O)c1cccnc1-n1ccc(-c2ccccc2OC(F)F)n1 (stereo not drawn) [Example 166, N-[3-Amino-2,3-dioxo-1-(phenylmethyl)propyl]-2-(3-{2-[(difluoromethyl)oxy]phenyl}-1H-pyrazol-1-yl)pyridine-3-carboxamide] | ≤ 40 nM | + (10≦Ki(cathepsin B)/Ki(calpain)<30) | ++ (Ki(cathepsin K)/Ki(calpain) ratio of ≧30) | ++ (Ki(cathepsin L)/Ki(calpain) ratio of ≧50) | ++ (Ki(cathepsin S)/Ki(calpain) ratio of ≧100)
7 | NC(=O)C(=O)C(Cc1ccccc1)NC(=O)c1cccnc1-n1cc2c(n1)-c1cccc(Cl)c1OC2 (stereo not drawn) [Example 175, N-[3-Amino-2,3-dioxo-1-(phenylmethyl)propyl]-2-(6-chlorochromeno[4,3-c]pyrazol-2(4H)-yl)pyridine-3-carboxamide] | ≤ 40 nM | ++ (Ki(cathepsin B)/Ki(calpain) ratio of ≧30) | ++ (Ki(cathepsin K)/Ki(calpain) ratio of ≧30) | ++ (Ki(cathepsin L)/Ki(calpain) ratio of ≧50) | ++ (Ki(cathepsin S)/Ki(calpain) ratio of ≧100)
8 | NC(=O)C(=O)C(Cc1ccccc1)NC(=O)c1cccnc1-n1ccc(C23CC4CC(CC(C4)C2)C3)n1 (stereo not drawn) [Example 193, N-[3-Amino-2,3-dioxo-1-(phenylmethyl)propyl]-2-(3-tricyclo[3.3.1.1^3,7]dec-1-yl-1H-pyrazol-1-yl)pyridine-3-carboxamide] | ≤ 40 nM | ++ (Ki(cathepsin B)/Ki(calpain) ratio of ≧30) | ++ (Ki(cathepsin K)/Ki(calpain) ratio of ≧30) | ++ (Ki(cathepsin L)/Ki(calpain) ratio of ≧50) | ++ (Ki(cathepsin S)/Ki(calpain) ratio of ≧100)
9 | N-[3-Amino-2,3-dioxo-1-(phenylmethyl)propyl]-2-[3-(3,5-dichlorophenyl)-1H-pyrazol-1-yl]pyridine-3-carboxamide [Example 89] | 40 to 100 nM | + (10≦Ki(cathepsin B)/Ki(calpain)<30) | + (10≦Ki(cathepsin K)/Ki(calpain)<30) | ++ (Ki(cathepsin L)/Ki(calpain) ratio of ≧50) | ++ (Ki(cathepsin S)/Ki(calpain) ratio of ≧100)
